Patent US5773421A, “Antifungal fusacandins” (Abbott Laboratories, priority 1995, dated 1998)
≈ marks a conversion by molar mass, not a printed value. Read-outs that look alike come from different tables or passages of the source.

Columns and labels:
(1,3)-β-Glucan Synthase = target: T1, (1,3)-β-Glucan Synthase (Candida albicans, UniProt O13428); test: In vitro inhibition of (1,3)-β-glucan synthase activity, microsomal enzyme preparation; format: biochemical; details: C. albicans CCH 442 microsomal enzyme
T1 construct: microsomal enzyme preparation C. albicans CCH 442; endogenous in cells; host or cells: Candida albicans CCH 442, microsomes
T1 sequence (O13428 1-1897): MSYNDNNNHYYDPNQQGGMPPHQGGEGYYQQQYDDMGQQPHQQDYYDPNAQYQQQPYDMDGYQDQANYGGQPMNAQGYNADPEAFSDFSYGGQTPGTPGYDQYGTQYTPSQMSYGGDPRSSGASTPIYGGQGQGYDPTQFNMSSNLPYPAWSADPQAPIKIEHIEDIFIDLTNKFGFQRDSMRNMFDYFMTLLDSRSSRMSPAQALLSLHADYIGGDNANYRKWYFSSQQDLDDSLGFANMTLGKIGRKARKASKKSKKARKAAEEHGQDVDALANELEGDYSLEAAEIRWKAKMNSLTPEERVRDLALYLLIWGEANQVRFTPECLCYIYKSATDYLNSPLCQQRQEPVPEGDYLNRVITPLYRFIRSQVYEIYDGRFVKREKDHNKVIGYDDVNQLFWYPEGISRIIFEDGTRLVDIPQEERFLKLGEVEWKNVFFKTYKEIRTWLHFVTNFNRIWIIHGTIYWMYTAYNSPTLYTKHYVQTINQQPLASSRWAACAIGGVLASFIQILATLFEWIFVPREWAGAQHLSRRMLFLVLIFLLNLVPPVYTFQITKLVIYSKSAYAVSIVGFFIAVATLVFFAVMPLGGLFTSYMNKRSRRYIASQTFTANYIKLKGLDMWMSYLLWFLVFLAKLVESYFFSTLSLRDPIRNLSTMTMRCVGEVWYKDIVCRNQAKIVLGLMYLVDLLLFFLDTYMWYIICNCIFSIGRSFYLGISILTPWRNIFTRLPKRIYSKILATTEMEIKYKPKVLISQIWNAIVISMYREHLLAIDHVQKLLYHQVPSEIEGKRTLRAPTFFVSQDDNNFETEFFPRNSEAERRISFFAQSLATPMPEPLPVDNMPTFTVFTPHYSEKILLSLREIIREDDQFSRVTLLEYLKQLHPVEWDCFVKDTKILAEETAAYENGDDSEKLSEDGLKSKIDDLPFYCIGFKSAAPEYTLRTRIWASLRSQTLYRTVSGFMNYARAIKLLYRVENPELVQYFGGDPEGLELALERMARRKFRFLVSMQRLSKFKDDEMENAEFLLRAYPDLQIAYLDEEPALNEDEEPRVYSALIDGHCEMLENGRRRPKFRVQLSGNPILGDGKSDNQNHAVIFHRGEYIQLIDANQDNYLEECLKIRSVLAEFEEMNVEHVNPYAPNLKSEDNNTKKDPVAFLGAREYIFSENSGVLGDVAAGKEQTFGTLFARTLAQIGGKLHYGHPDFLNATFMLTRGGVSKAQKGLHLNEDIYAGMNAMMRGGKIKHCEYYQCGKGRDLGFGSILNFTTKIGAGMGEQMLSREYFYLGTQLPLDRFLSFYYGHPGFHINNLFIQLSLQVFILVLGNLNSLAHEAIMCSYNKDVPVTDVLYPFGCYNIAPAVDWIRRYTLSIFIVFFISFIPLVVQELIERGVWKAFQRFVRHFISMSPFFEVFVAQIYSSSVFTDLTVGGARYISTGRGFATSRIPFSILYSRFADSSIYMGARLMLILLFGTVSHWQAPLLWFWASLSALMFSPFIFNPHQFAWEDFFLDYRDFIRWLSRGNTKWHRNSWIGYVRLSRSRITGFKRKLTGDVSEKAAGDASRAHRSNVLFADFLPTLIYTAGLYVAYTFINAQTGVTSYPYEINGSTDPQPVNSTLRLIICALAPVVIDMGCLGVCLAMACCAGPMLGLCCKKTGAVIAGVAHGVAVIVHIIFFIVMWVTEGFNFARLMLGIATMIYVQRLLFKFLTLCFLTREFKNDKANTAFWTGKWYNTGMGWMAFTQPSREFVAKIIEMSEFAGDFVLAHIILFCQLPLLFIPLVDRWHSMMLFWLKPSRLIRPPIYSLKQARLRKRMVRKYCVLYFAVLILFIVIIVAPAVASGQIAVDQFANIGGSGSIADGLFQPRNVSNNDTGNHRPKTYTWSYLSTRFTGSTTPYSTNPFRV
Method: The assay was conducted in a final volume of 100 μL of 2.0 mM UDP-[^14 C]-Glc (0.625 mCi/mmol), 1 mM EDTA, 8% (v/v) glycerol, 20 μM GTPgS, 0.5% Brij-35(v/v) or 0.8% BSA, 80 mM Tris/HCl, pH 7.75, and microsomal enzyme preparation C. albicans CCH 442 (100 μg of protein). A detailed description of this assay is described by Frost, D., Brandt, K. Capobioanco, and Goldman, R., Microbiology 140: 2239-2246 (1994) which is incorporated herein by reference.

[1] = Minimum inhibitory concentration (MIC) stated with the glucan synthase screen; format: cell-based; details: organism not given
glucan synthase = target: T2, glucan synthase (Candida albicans, UniProt O13428); test: Microtiter screen for inhibitors of (1,3)-β-glucan formation in cell free extracts; format: biochemical; details: C. albicans microsomes, [14C]UDP-Glc, water-insoluble β-glucan product on filter
T2 construct: Microsomes isolated from mid-log phase grown yeast; endogenous in cells; host or cells: Candida albicans, mid-log phase yeast cells, microsomes
T2 sequence (O13428 1-1897): as above
Text: The fungal cell wall serves as a protective barrier and is essential for viability in a hypotonic environment. (1,3)-β-Glucan is a component of the Candida albicans cell wall, and the enzyme that biosynthesizes this polymer, glucan synthase, is not present in higher eukaryotes. (Glucan synthase is an integral plasma membrane protein that catalyzes polymerization of uridine diphosphate-glucose (UDP-Glc) into β-glucan.) Accordingly, glucan synthase represents an ideal target for the development of antifungal agents.
A microtiter screen was established to detect inhibitors of (1 ,3)-β-glucan formation in C. albicans cell free extracts. Microsomes isolated from mid-log phase grown yeast were incubated with [^14 C]UDP-Glc, effectors and test compound (fusacandin A, Example 4). The formation of the water-insoluble β-glucan product was measured on a filter after removing the substrate with water washes.

[2] = MIC by broth dilution assay; format: cell-based; details: Table 6d, 2 ×10^5 organisms/mL; for MIC: 144 h, no sorbitol
Method: Minimal inhibitory concentrations (MICs) were determined by a broth dilution assay described by Frost, D., Brandt, K., Cugier, D., and Goldman, R. in J. Antibiotics 48: 306-310 (1995) which is incorporated herein by reference. The final concentration of cells was 2 ×10^5 organisms/mL.

[3] = test system: Nocardia asteroides ATTC 9970; test: MIC by agar dilution method; format: cell-based; details: ATTC9970; Table 6a; Nocardia asteroides ATTC 9970; agar dilution, 32° C., 20 hours; read-out: MIC
[4] = test system: Aspergillus niger ATCC 164; test: MIC by agar dilution method; format: cell-based; details: ATCC164, Aspergillus niger ATCC 164, agar dilution, 32° C., 20 hours, read-out: MIC
Method: (§1) Minimal inhibitory concentrations (MICs) were determined by an agar dilution method. The test compounds were serially diluted in MeOH and 0.2 mL portions were mixed with 20 mL of molten, cooled Sabouraud dextrose agar (Difco). Yeast cell inoculum was prepared by growing cultures on Sabouraud dextrose agar for 18 hours at 32° C. and suspending the cells in phosphate buffered saline. Filamentous fungi were grown under the same conditions for 4 days to obtain spores. The inoculum level for all cultures was adjusted to 10^4 cells using a Petroff-Hauser cell counter. The glutarimide antifungal compounds cycloheximide or amphotericin B were used as a control. Inoculated test plates were incubated at 32° C. and examined after 20 hours.

Candida albicans CCH 442 = test: MIC by agar dilution method; format: cell-based; details: CCH442, agar dilution
Method: as §1

Candida albicans 579a = test: MIC by agar dilution method; format: cell-based
Method: as §1

[5] = test system: Candida albicans ATCC 10231; test: MIC by agar dilution method; format: cell-based; details: ATCC10231; Table 6c; I Candida albicans ATCC 10231; agar dilution; read-out: MIC I
Method: as §1

[6] = test system: Candida albicans ATCC 38247; test: MIC by agar dilution method; format: cell-based; details: ATCC38247; Table 6c; IV Candida albicans ATCC 38247; agar dilution; read-out: MIC IV
Method: as §1

[7] = test system: Saccharomyces cereviseae GS1-36; test: MIC by agar dilution method; format: cell-based; details: GS136, Saccharomyces cereviseae GS1-36, agar dilution, 32° C., 20 hours, read-out: MIC
Method: as §1

[8] = test system: Candida albicans ATCC 997; test: MIC by agar dilution method; format: cell-based; details: ATCC997; Table 6a; Candida albicans ATCC 997; agar dilution, 32° C., 20 hours; read-out: MIC
Method: as §1

[9] = test system: Candida tropicalis NRRL-Y-1; test: MIC by agar dilution method; format: cell-based; details: NRRLY1, agar dilution, 32° C., 20 hours, read-out: MIC
Method: as §1

Candida kefyr ATTC 288 = test: MIC by agar dilution method; format: cell-based; details: Kluyveromyces marxianus
Method: as §1

[10] = test system: Candida albicans ATCC 623; test: MIC by agar dilution method; format: cell-based; details: ATCC623, Candida albicans ATCC 623, agar dilution, 32° C., 20 hours, read-out: MIC
Method: as §1

[11] = test system: Candida albicans ATCC 62376; test: MIC by agar dilution method; format: cell-based; details: ATCC62376; Table 6c; V Candida albicans ATCC 62376; agar dilution; read-out: MIC V
Method: as §1

[12] = test system: Torulopsis glabrata ATCC 155; test: MIC by agar dilution method; format: cell-based; details: Nakaseomyces glabratus, ATCC155, Torulopsis glabrata ATCC 155, agar dilution, 32° C., 20 hours, read-out: MIC
Method: as §1

[13] = test system: Streptococcus bovis A-5169; test: MIC by agar dilution method; format: cell-based; details: Streptococcus equinus, A5169; Table 6a; Streptococcus bovis A-5169; agar dilution, 32° C., 20 hours; read-out: MIC
[14] = test system: Staphylococcus aureus ATTC 6538p; test: MIC by agar dilution method; format: cell-based; details: ATTC6538P; Table 6a; Staphylococcus aureus ATTC 6538p; agar dilution, 32° C., 20 hours; read-out: MIC
[15] = test system: Streptococcus pyrogenes EES61; test: MIC by agar dilution method; format: cell-based; details: Table 6a; Streptococcus pyrogenes EES61; agar dilution, 32° C., 20 hours; read-out: MIC
[16] = test system: Candida albicans ATCC 382; test: MIC by agar dilution method; format: cell-based; details: ATCC382, 20 h
Method: as §1

[17] = test system: Candida albicans ATCC 102; test: MIC by agar dilution method; format: cell-based; details: ATCC102, 20 h
Method: as §1

[18] = test system: Cryptococcus albidus ATCC 341; test: MIC by agar dilution method; format: cell-based; details: Naganishia albida, ATCC341, Table 6b, 32° C., 20 hours
Method: as §1

[19] = Table 6c, 3rd value column (head printed II), III Candida albicans CCH 442, read-out: MIC II
[20] = Table 6c, II Candida albicans 579a, agar dilution, read-out: MIC II
[21] = Table 6b, Candida albicans CCH 442, 32° C., 20 hours, read-out: MIC
[22] = Table 6b, Candida tropicalis NRRL Y-1

Row | Structure (SMILES) | MIC (Candida albicans CCH 442; [19]) [µg/mL] | MIC (Candida albicans 579a; [20]) [µg/mL] | MIC [5] [µg/mL] | MIC [6] [µg/mL] | MIC [11] [µg/mL] | MIC [2] [µg/mL] | MIC ([4]; Table 6b) [µg/mL] | MIC [16] [µg/mL] | MIC (Candida albicans CCH 442; [21]) [µg/mL] | MIC (Candida albicans 579a; Candida albicans, 579A, 20 h) [µg/mL] | MIC ([7]; Table 6b) [µg/mL] | MIC [9, 22] [µg/mL] | MIC (Candida kefyr ATTC 288; ATCC288, 20 h) [µg/mL] | MIC [17] [µg/mL] | MIC ([10]; Table 6b) [µg/mL] | MIC [18] [µg/mL] | MIC ([12]; Table 6b) [µg/mL] | further results
1 | CCC(O)/C=C/C=C/C=C/C(=O)OC[C@H]1O[C@@H](O[C@H]2[C@H](OC(=O)/C=C/C=C/CC(O)/C(C)=C/C=C/CCC(C)CC)[C@@H](O)[C@@]3(OCc4cc(O)cc(O)c43)O[C@@H]2CO)[C@H](O)[C@@H](O)[C@H]1O (stereo partly shown) [Papulacandin B, papulacandin B, reference compound] | – | – | – | – | – | – | – | – | – | – | – | – | – | – | – | – | – | IC50 With Brij-35 ((1,3)-β-Glucan Synthase; 0.5% Brij-35): 0.8 µg/mL (≈ 0.888 µM); IC50 With BSA ((1,3)-β-Glucan Synthase; 0.8% BSA): 16.3 µg/mL (≈ 18.1 µM); minimum inhibitory concentration (MIC) [1]: 1.0 µg/mL (≈ 1.11 µM); IC50 (glucan synthase): 3.6 µg/mL; MIC No sorbitol [2]: 0.48 µg/mL (≈ 0.533 µM)
2 | CCCCCC=CC=CC(=O)OCC1OC(OC2C(CO)OC(c3c(O)cc(O)cc3CO)C(O)C2OC(=O)C=CC=CCC(O)C=CC=CCCCCC)C(OC2OC(CO)C(O)C(O)C2O)C(O)C1O (stereo not shown) [Example 4, fusacandin A] | 0.78 (≈ 0.762 µM) | 0.78 (≈ 0.762 µM) | 1.56 (≈ 1.52 µM) | 0.78 (≈ 0.762 µM) | 1.56 (≈ 1.52 µM) | 0.48 (≈ 0.469 µM) | – | – | – | – | – | – | – | – | – | – | – | IC50 ((1,3)-β-Glucan Synthase; 0.5% Brij-35, read-out: IC50 With Brij-35 (converted)): 6.84 µM; IC50 ((1,3)-β-Glucan Synthase; 0.8% BSA, read-out: IC50 With BSA (converted)): 111 µM; MIC [1]: 0.5 µg/mL (≈ 0.489 µM); MIC [3]: 12.5 µg/mL (≈ 12.2 µM); IC50 (glucan synthase; read-out: IC50 (converted)): 20 µM; MIC ([4]; Table 6a): 6.25 µg/mL (≈ 6.11 µM); MIC (Candida albicans CCH 442; Table 6a, Candida albicans CCH 442, 32° C., 20 hours, read-out: MIC): 6.26 µg/mL (≈ 6.12 µM); MIC ([7]; Table 6a): 3.12 µg/mL (≈ 3.05 µM); MIC [8]: 12.5 µg/mL (≈ 12.2 µM); MIC ([9]; Table 6a, Candida tropicalis NRRL-Y-1): 6.25 µg/mL (≈ 6.11 µM); MIC (Candida kefyr ATTC 288; ATTC288, Table 6a, Candida kefyr ATTC 288, agar dilution, 32° C., 20 hours, read-out: MIC): 6.25 µg/mL (≈ 6.11 µM); MIC ([10]; Table 6a): 6.25 µg/mL (≈ 6.11 µM); MIC ([12]; Table 6a): 3.12 µg/mL (≈ 3.05 µM); MIC [13]: 12.5 µg/mL (≈ 12.2 µM); MIC [14]: 50 µg/mL (≈ 48.9 µM); MIC [15]: 6.25 µg/mL (≈ 6.11 µM)
3 | C[C@@H]1[C@H](O)[C@@H](C)/C=C/C=C/C=C/C=C/C=C/C=C/C=C/[C@H](O[C@@H]2O[C@H](C)[C@@H](O)[C@H](N)[C@@H]2O)C[C@@H]2O[C@](O)(C[C@@H](O)C[C@@H](O)[C@H](O)CC[C@@H](O)C[C@@H](O)CC(=O)O[C@H]1C)C[C@H](O)[C@H]2C(=O)O [Amphotericin B, amphotericin B, reference compound] | – | – | – | – | – | 0.24 (≈ 0.26 µM) | 1.56 (≈ 1.69 µM) | 50 (≈ 54.1 µM) | 1.56 (≈ 1.69 µM) | 1.56 (≈ 1.69 µM) | 1.56 (≈ 1.69 µM) | 1.56 (≈ 1.69 µM) | 1.56 (≈ 1.69 µM) | 1.56 (≈ 1.69 µM) | 1.56 (≈ 1.69 µM) | 3.12 (≈ 3.38 µM) | 1.56 (≈ 1.69 µM) | –
4 | CCCCC/C=C/C=C/C(O)C/C=C/C=C/C(=O)O[C@@H]1[C@@H](O)[C@H](c2c(O)cc(O)cc2CO)O[C@H](CO)[C@H]1O[C@@H]1O[C@H](CO)[C@H](O)[C@H](O)[C@H]1O[C@@H]1O[C@H](CO)[C@H](O)[C@H](O)[C@H]1O (stereo partly shown) [Example 7, fusacandin B] | 25 (≈ 28.6 µM) | 25 (≈ 28.6 µM) | 50 (≈ 57.3 µM) | > 100 | 50 (≈ 57.3 µM) | – | > 100 | > 100 | 50 (≈ 57.3 µM) | 50 (≈ 57.3 µM) | 50 (≈ 57.3 µM) | 50 (≈ 57.3 µM) | 100 (≈ 115 µM) | 50 (≈ 57.3 µM) | 100 (≈ 115 µM) | > 100 | 100 (≈ 115 µM) | –
